For orientation: inhibition means the change of the read-out against control, counted positive when it falls.

The subject of series [1] is murine colon tumor, C26/clone 10. Nature of the series: Murine colon tumor C26/clone 10 implanted subcutaneously in mice, compound given IP or PO on Days 1 through 14. It is filed as in vivo, Male CD2F1 mice. Particulars: for Change in Body Weight (grams): Days 1 through 14. As for the experimental part: Male CD2F1 mice (NCI: Charles River, Kingston) were implanted subcutaneously with tumor fragments (approximately 30 mg) in the region of the right axilla on Day 0. […] The vehicle for the test compound, and for control animals, was 10% EtOH/10% Cremophor-EL (Sigma)/80% H2O, pH 5.0. Tumor volumes were recorded three times per week by measuring the length and width of the individual tumors and calculating mass in milligrams according to the formula (a × b^2)/2, where a and b are the length and width of the tumor. Percent treated/control (T/C) was calculated based on the ratio of the median tumor volume of the treated tumors compared with the median tumor volume of control animals on specified measurement days.

In series [2] the target is T1, MEK (Homo sapiens, UniProt Q02750). The series is described as follows: Cascade assay for inhibitors of the MAP kinase pathway (32P incorporation into MBP with GST-MEK and GST-MAPK). Format: biochemical. Particulars: read-out: % Inhibition In Vitro.
The target in series [3] is T1, MEK. Described as above. Format: biochemical. Particulars: read-out: % Inhibition In Vitro. As for the experimental part:
Incorporation of ^32P into myelin basic protein (MBP) was assayed in the presence of a glutathione S-transferase fusion protein containing p44MAP kinase (GST-MAPK) and a glutathione S-transferase fusion protein containing p45MEK (GST-MEK). The assay solution contained 20 mM HEPES, pH 7.4, 10 mM MgCl2, 1 mM MnCl2, 1 mM EGTA, 50 µM [γ-^32P]ATP, 10 µg GST-MEK, 0.5 µg GST-MAPK and 40 µg MBP in a final volume of 100 µL. […] Compounds were assessed at 10 µM for ability to inhibit incorporation of ^32P.
To ascertain whether compounds were inhibiting GST-MEK or GST MAPK, two additional protocols were employed. In the first protocol, compounds were added to tubes containing GST-MEK, followed by addition of GST-MAPK, MBP and [γ-^32P]ATP. In the second protocol, compounds were added to tubes containing both GST-MEK and GST-MAPK, followed by MBP and [γ-^32P]ATP.
This is another data set of the same source.

T1 sequence (Q02750 whole entry): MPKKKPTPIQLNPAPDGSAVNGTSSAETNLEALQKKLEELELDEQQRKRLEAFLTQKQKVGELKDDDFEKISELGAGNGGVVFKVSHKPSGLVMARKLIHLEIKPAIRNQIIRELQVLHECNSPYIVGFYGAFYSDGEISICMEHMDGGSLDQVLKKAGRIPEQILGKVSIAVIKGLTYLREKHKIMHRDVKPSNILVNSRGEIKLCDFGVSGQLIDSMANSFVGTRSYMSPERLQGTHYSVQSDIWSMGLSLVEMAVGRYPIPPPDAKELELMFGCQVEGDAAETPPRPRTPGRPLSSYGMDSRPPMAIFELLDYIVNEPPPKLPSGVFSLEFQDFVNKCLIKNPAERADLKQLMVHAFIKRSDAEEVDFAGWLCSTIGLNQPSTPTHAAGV

For the molecule `O=C(NOCC1CC1)c1ccc(F)c(F)c1Nc1ccc(I)cc1Cl` [Example 95, 3,4-Difluoro-2-(2-chloro-4-iodo-phenylamino)-N-cyclopropylmethoxy-benzamide], the “% T/C (Day 15)” value in series [1] (IP, 48 mg/kg/day) is 41%; in series [1] (IP, 77 mg/kg/day), 2%; in series [1] (IP, 124 mg/kg/day), 4%; in series [1] (IP, 200 mg/kg/day), 0%. Also, the “Change in Body Weight (grams)” value is recorded as “+3 grams” in series [1] (IP, 48 mg/kg/day); “+2 grams” in series [1] (IP, 77 mg/kg/day); “+3 grams” in series [1] (IP, 124 mg/kg/day); “+2 grams” in series [1] (IP, 200 mg/kg/day); “+2 grams” in series [1] (PO, 71 mg/kg/day); “+2 grams” in series [1] (PO, 115 mg/kg/day). In addition, the “Change in Body Weight (grams)” value in series [1] (PO, 186 mg/kg/day) is on record as “+2 grams”; in series [1] (PO, 300 mg/kg/day), “+2 grams”. The “% T/C (Day 17)” value turned out to be 36% in series [1] (PO, 71 mg/kg/day); 21% in series [1] (PO, 115 mg/kg/day); 25% in series [1] (PO, 186 mg/kg/day); 17% in series [1] (PO, 300 mg/kg/day).

Turning to `Cc1ccc(Cl)c(Nc2ccccc2C(=O)N(O)Cc2ccccc2)c1Cl` [the 8th table: R6=CH2-Ph, R7=H], the inhibition at 1 µM at MEK [2] was -4%. Besides, the inhibition at 10 µM at MEK [3] was 18%.

In the case of `Cc1ccc(Cl)c(Nc2ccccc2C(=O)N(C)O)c1Cl` [the 8th table: R6=CH3, R7=H], the inhibition at 1 µM at MEK [2] is -5%. The inhibition at 10 µM on MEK [3] came out at 19%.

As for `CONC(=O)c1ccccc1Nc1c(Cl)ccc(C)c1Cl` [the 8th table: R6=H, R7=CH3], on MEK [2], the inhibition at 1 µM was -8%. On MEK [3], the inhibition at 10 µM stood at 8%.

On to `Cc1ccc(Cl)c(Nc2ccccc2C(=O)NO)c1Cl` [the 8th table: R6=H, R7=H], for which, on MEK [2], the inhibition at 1 µM came to 9%. For the same molecule, on MEK [3], the inhibition at 10 µM was -3%.

In the case of `Cc1ccc(Cl)c(Nc2ccccc2C(=O)N(O)C(C)C)c1Cl` [the 8th table: R6=iPr, R7=H], the inhibition at 1 µM on MEK [2] stood at 17%. Further, at MEK [3], the inhibition at 10 µM is 9%.

On to `Cc1cccc(Nc2ccccc2C(=O)N(C)O)c1C` [the 9th table: R6=CH3, R7=H], for which the inhibition at 1 µM at MEK [2] turned out to be 13%. For the same molecule, on MEK [3], the inhibition at 10 µM amounted to 19%.

As to `CONC(=O)c1ccccc1Nc1cccc(C)c1C` [the 9th table: R6=H, R7=CH3], the inhibition at 1 µM on MEK [2] is -6%. Besides, at MEK [3], the inhibition at 10 µM was determined as 12%.

In the case of `Cc1cccc(Nc2ccccc2C(=O)NO)c1C` [the 9th table: R6=H, R7=H], the inhibition at 1 µM on MEK [2] was determined as 6%. Moreover, at MEK [3], the inhibition at 10 µM is -4%.

For `Cc1cccc(Nc2ccccc2C(=O)N(O)C(C)C)c1C` [the 9th table: R6=iPr, R7=H], on MEK [2], the inhibition at 1 µM is -11%. Besides, on MEK [3], the inhibition at 10 µM was found to be 7%.
